According to ChEMBL document CHEMBL1132901, “Synthesis and structure-activity relationships of quaternary ammonium cephalosporins with 3-pyrazolylpyridinium derivatives” (2000):
Values after ≈ are worked out from the molar mass of the structure shown.

Legend:
Klebsiella oxytoca = experiment: In vitro antimicrobial activity against Klebsiella oxytoca 1082; assay type: functional
Staphylococcus aureus [1] = experiment: In vitro antimicrobial activity against Methicillin resistant Staphylococcus aureus (MRSA); assay type: functional
Escherichia coli [2] = experiment: In vitro antimicrobial activity against Escherichia coli DC 2; assay type: functional
Pseudomonas aeruginosa [3] = experiment: In vitro antimicrobial activity against Pseudomonas aeruginosa 9027; assay type: functional
Staphylococcus aureus [4] = experiment: In vitro antimicrobial activity against Staphylococcus aureus 503; assay type: functional
Escherichia coli [5] = experiment: In vitro antimicrobial activity against Escherichia coli TEM; assay type: functional
Klebsiella aerogenes = experiment: In vitro antimicrobial activity against Klebsiella aerogenes 1522 E; assay type: functional
Staphylococcus aureus [6] = experiment: In vitro antimicrobial activity against Staphylococcus aureus 285; assay type: functional
Escherichia coli [7] = experiment: In vitro antimicrobial activity against Escherichia coli DC 0; assay type: functional
Salmonella typhimurium = experiment: In vitro antimicrobial activity against Salmonella Typhimurium; assay type: functional, Salmonella enterica subsp. enterica serovar Typhimurium; conditions: Salmonella enterica
Escherichia coli [8] = experiment: In vitro antimicrobial activity against Escherichia coli 055; assay type: functional
Enterobacter cloacae [9] = experiment: In vitro antimicrobial activity against Enterobacter 1321 E; assay type: functional
Enterococcus faecium = experiment: In vitro antimicrobial activity against Streptococcus faecium MD 8b; assay type: functional
Streptococcus pyogenes [10] = experiment: In vitro antimicrobial activity against Streptococcus pyogenes A 308; assay type: functional
Enterobacter cloacae [11] = experiment: In vitro antimicrobial activity against Enterobacter cloacae P99; assay type: functional
Pseudomonas aeruginosa [12] = experiment: In vitro antimicrobial activity against Pseudomonas aeruginosa 1592 E; assay type: functional
Escherichia coli [13] = experiment: In vitro antimicrobial activity against Escherichia coli 1507E; assay type: functional
Streptococcus pyogenes [14] = experiment: In vitro antimicrobial activity against Streptococcus pyogenes SG 511; assay type: functional
Pseudomonas aeruginosa [15] = experiment: In vitro antimicrobial activity against Pseudomonas aeruginosa 1771 M; assay type: functional
Pseudomonas aeruginosa [16] = experiment: In vitro antimicrobial activity against Pseudomonas aeruginosa 1771; assay type: functional
Streptococcus pyogenes [17] = experiment: In vitro antimicrobial activity against Streptococcus pyogenes 77A; assay type: functional

Row | SMILES | MIC (Klebsiella oxytoca) [µg/mL] | MIC (Staphylococcus aureus [1]) [µg/mL] | MIC (Escherichia coli [2]) [µg/mL] | MIC (Pseudomonas aeruginosa [3]) [µg/mL] | MIC (Staphylococcus aureus [4]) [µg/mL] | MIC (Escherichia coli [5]) [µg/mL] | MIC (Klebsiella aerogenes) [µg/mL] | MIC (Staphylococcus aureus [6]) [µg/mL] | MIC (Escherichia coli [7]) [µg/mL] | MIC (Salmonella typhimurium) [µg/mL] | MIC (Escherichia coli [8]) [µg/mL] | MIC (Enterobacter cloacae [9]) [µg/mL] | MIC (Enterococcus faecium) [µg/mL] | MIC (Streptococcus pyogenes [10]) [µg/mL] | MIC (Enterobacter cloacae [11]) [µg/mL] | MIC (Pseudomonas aeruginosa [12]) [µg/mL] | MIC (Escherichia coli [13]) [µg/mL] | MIC (Streptococcus pyogenes [14]) [µg/mL] | MIC (Pseudomonas aeruginosa [15]) [µg/mL] | MIC (Pseudomonas aeruginosa [16]) [µg/mL] | also measured
1 | CO/N=C(/C(=O)N[C@@H]1C(=O)N2C(C(=O)[O-])=C(C[n+]3cccc(-c4cc(C(N)=O)[nH]n4)c3)CS[C@H]12)c1csc(N)n1 | 1.56 (≈ 2.68 µM) | 50 (≈ 85.7 µM) | 0.025 (≈ 0.0428 µM) | 6.25 (≈ 10.7 µM) | 0.391 (≈ 0.67 µM) | 0.195 (≈ 0.334 µM) | 0.049 (≈ 0.084 µM) | 1.56 (≈ 2.68 µM) | 0.025 (≈ 0.0428 µM) | 0.049 (≈ 0.084 µM) | 0.025 (≈ 0.0428 µM) | 0.025 (≈ 0.0428 µM) | 3.12 (≈ 5.35 µM) | 0.013 (≈ 0.0223 µM) | 50 (≈ 85.7 µM) | 3.12 (≈ 5.35 µM) | 0.098 (≈ 0.168 µM) | 0.781 (≈ 1.34 µM) | 0.781 (≈ 1.34 µM) | 1.56 (≈ 2.68 µM) | MIC (Streptococcus pyogenes [17]): 0.013 µg/mL (≈ 0.0223 µM)
2 | CO/N=C(/C(=O)N[C@@H]1C(=O)N2C(C(=O)[O-])=C(C[n+]3cccc(-c4cc(N)n(CCO)n4)c3)CS[C@H]12)c1csc(N)n1 | 3.12 (≈ 5.21 µM) | 12.5 (≈ 20.8 µM) | 0.013 (≈ 0.0217 µM) | 12.5 (≈ 20.8 µM) | 0.391 (≈ 0.652 µM) | 0.098 (≈ 0.163 µM) | 0.049 (≈ 0.0817 µM) | 1.56 (≈ 2.61 µM) | 0.025 (≈ 0.0417 µM) | 0.098 (≈ 0.163 µM) | 0.025 (≈ 0.0417 µM) | 0.025 (≈ 0.0417 µM) | 1.56 (≈ 2.61 µM) | 0.025 (≈ 0.0417 µM) | 50 (≈ 83.4 µM) | 6.25 (≈ 10.4 µM) | 0.098 (≈ 0.163 µM) | 0.781 (≈ 1.3 µM) | 0.391 (≈ 0.652 µM) | 3.12 (≈ 5.21 µM) | MIC (Streptococcus pyogenes [17]): 0.013 µg/mL (≈ 0.0217 µM)
3 | CO/N=C(/C(=O)N[C@@H]1C(=O)N2C(C(=O)[O-])=C(C[n+]3cccc(-c4cc(N)n(C)n4)c3)CS[C@H]12)c1csc(N)n1 | 1.56 (≈ 2.74 µM) | 50 (≈ 87.8 µM) | 0.013 (≈ 0.0228 µM) | 6.25 (≈ 11 µM) | 0.391 (≈ 0.686 µM) | 0.098 (≈ 0.172 µM) | 0.025 (≈ 0.0439 µM) | 0.781 (≈ 1.37 µM) | 0.025 (≈ 0.0439 µM) | 0.049 (≈ 0.086 µM) | 0.025 (≈ 0.0439 µM) | 0.025 (≈ 0.0439 µM) | 1.56 (≈ 2.74 µM) | 0.013 (≈ 0.0228 µM) | 25 (≈ 43.9 µM) | 3.12 (≈ 5.49 µM) | 0.049 (≈ 0.086 µM) | 0.781 (≈ 1.37 µM) | 0.391 (≈ 0.686 µM) | 1.56 (≈ 2.74 µM) | MIC (Streptococcus pyogenes [17]): 0.007 µg/mL (≈ 0.0123 µM)
4 | CO/N=C(/C(=O)N[C@@H]1C(=O)N2C(C(=O)[O-])=C(C[n+]3cccc(-c4cc(N)[nH]n4)c3)CS[C@H]12)c1csc(N)n1 | 1.56 (≈ 2.81 µM) | 25 (≈ 45 µM) | 0.013 (≈ 0.0234 µM) | 3.12 (≈ 5.62 µM) | 0.195 (≈ 0.351 µM) | 0.049 (≈ 0.0882 µM) | 0.025 (≈ 0.045 µM) | 0.781 (≈ 1.41 µM) | 0.025 (≈ 0.045 µM) | 0.049 (≈ 0.0882 µM) | 0.013 (≈ 0.0234 µM) | 0.013 (≈ 0.0234 µM) | 1.56 (≈ 2.81 µM) | 0.007 (≈ 0.0126 µM) | 50 (≈ 90 µM) | 1.56 (≈ 2.81 µM) | 0.025 (≈ 0.045 µM) | 0.391 (≈ 0.704 µM) | 0.195 (≈ 0.351 µM) | 0.781 (≈ 1.41 µM) | MIC (Streptococcus pyogenes [17]): 0.007 µg/mL (≈ 0.0126 µM)
5 | CO/N=C(/C(=O)N[C@@H]1C(=O)N2C(C(=O)[O-])=C(C[n+]3cccc(-c4cc(C(N)=O)nn4CCO)c3)CS[C@H]12)c1csc(N)n1 | 6.25 (≈ 9.96 µM) | 25 (≈ 39.8 µM) | 0.098 (≈ 0.156 µM) | 25 (≈ 39.8 µM) | 0.781 (≈ 1.24 µM) | 0.391 (≈ 0.623 µM) | 0.098 (≈ 0.156 µM) | 3.12 (≈ 4.98 µM) | 0.098 (≈ 0.156 µM) | 0.098 (≈ 0.156 µM) | 0.098 (≈ 0.156 µM) | 0.049 (≈ 0.0781 µM) | 6.25 (≈ 9.96 µM) | 0.049 (≈ 0.0781 µM) | 50 (≈ 79.7 µM) | 12.5 (≈ 19.9 µM) | 0.195 (≈ 0.311 µM) | 1.56 (≈ 2.49 µM) | 0.781 (≈ 1.24 µM) | 3.12 (≈ 4.98 µM) | MIC (Streptococcus pyogenes [17]): 0.025 µg/mL (≈ 0.0398 µM)
6 | CO/N=C(/C(=O)N[C@@H]1C(=O)N2C(C(=O)[O-])=C(C[n+]3cccc(-c4cc(C(N)=O)nn4C)c3)CS[C@H]12)c1csc(N)n1 | 3.12 (≈ 5.23 µM) | 100 (≈ 167 µM) | 0.025 (≈ 0.0418 µM) | 25 (≈ 41.8 µM) | 0.391 (≈ 0.654 µM) | 0.195 (≈ 0.326 µM) | 0.049 (≈ 0.082 µM) | 3.12 (≈ 5.23 µM) | 0.049 (≈ 0.082 µM) | 0.098 (≈ 0.164 µM) | 0.049 (≈ 0.082 µM) | 0.025 (≈ 0.0418 µM) | 3.12 (≈ 5.23 µM) | 0.025 (≈ 0.0418 µM) | 25 (≈ 41.8 µM) | 12.5 (≈ 20.9 µM) | 0.098 (≈ 0.164 µM) | 1.56 (≈ 2.62 µM) | 0.391 (≈ 0.654 µM) | 3.12 (≈ 5.23 µM) | MIC (Streptococcus pyogenes [17]): 0.013 µg/mL (≈ 0.0218 µM)
7 | CC(C)(O/N=C(\C(=O)N[C@@H]1C(=O)N2C(C(=O)[O-])=C(C[n+]3ccccc3)CS[C@H]12)c1csc(N)n1)C(=O)O [CEFTAZIDIME] | 0.391 (≈ 0.715 µM) | > 100 | 0.098 (≈ 0.179 µM) | 3.12 (≈ 5.72 µM) | 3.12 (≈ 5.72 µM) | 0.195 (≈ 0.357 µM) | 0.098 (≈ 0.179 µM) | 12.5 (≈ 22.9 µM) | 0.098 (≈ 0.179 µM) | 0.195 (≈ 0.357 µM) | 0.098 (≈ 0.179 µM) | 0.025 (≈ 0.0457 µM) | > 100 | 0.098 (≈ 0.179 µM) | > 100 | 1.56 (≈ 2.86 µM) | 0.195 (≈ 0.357 µM) | 12.5 (≈ 22.9 µM) | 0.195 (≈ 0.357 µM) | 0.781 (≈ 1.43 µM) | MIC (Streptococcus pyogenes [17]): 0.049 µg/mL (≈ 0.0896 µM)
